In PubChem BioAssay AID651650 (Sanford-Burnham Center for Chemical Genomics, 2012):
pIC50: −log10 of the molar value. Active and inactive are the calls of the source.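 How the source made its calls: active means mean IC50 below 20 µM in each of the two panels, so potent in both; inactive means the rest.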

Molecular target: Neuropilin-1 (Homo sapiens) (UniProt O14786)
Assay: NRP-1 b1b2 CendR peptide binding inhibitors, dose response, biochemical, FP and AlphaScreen panel (AID 651650)
Conditions: NRP-1 b1b2 / RPARPAR peptide binding, FP or AlphaScreen; for IC50: mean of runs; for pIC50: individual panel run IC50

Sequence of Neuropilin-1 (Homo sapiens) (O14786 whole entry, looked up): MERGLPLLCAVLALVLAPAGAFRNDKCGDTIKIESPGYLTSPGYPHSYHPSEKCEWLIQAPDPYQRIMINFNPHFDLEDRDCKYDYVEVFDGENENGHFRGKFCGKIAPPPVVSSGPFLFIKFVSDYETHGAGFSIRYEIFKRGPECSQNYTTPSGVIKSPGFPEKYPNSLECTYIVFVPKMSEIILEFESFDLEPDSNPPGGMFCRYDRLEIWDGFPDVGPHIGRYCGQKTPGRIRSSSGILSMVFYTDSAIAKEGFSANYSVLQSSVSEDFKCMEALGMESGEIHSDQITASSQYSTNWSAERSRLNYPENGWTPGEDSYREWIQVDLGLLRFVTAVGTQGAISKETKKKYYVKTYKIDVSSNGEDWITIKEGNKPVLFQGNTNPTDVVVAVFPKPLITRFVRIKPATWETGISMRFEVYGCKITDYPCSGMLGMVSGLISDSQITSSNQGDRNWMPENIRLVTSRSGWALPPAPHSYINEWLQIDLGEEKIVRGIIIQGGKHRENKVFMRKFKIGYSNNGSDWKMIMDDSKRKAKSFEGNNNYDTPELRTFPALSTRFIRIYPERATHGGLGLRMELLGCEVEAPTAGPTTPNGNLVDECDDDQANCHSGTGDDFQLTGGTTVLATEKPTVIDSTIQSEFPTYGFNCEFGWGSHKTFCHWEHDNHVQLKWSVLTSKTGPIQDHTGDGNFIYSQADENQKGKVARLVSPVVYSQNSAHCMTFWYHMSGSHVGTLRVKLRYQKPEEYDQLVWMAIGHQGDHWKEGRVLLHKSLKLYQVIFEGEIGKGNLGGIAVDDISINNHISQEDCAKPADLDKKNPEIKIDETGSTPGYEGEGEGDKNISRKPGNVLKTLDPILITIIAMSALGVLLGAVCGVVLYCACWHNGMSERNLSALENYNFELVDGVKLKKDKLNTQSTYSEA

Compound | IC50 (AlphaScreen) | pIC50 (AlphaScreen, run 1) | IC50 (FP) | pIC50 (FP, run 1) | pIC50 (FP, run 2)
Fc1cc(Cl)ccc1Nc1nc(NCc2ccccc2)nc2ccsc12 | > 100 µM (inactive) | < 4.00 | > 95 µM (inactive) | < 4.02 | < 4.02
COc1ccc(/C=N/NC(=O)c2cc(C(C)(C)C)[nH]n2)cc1COc1ccc(F)cc1F | > 100 µM (inactive) | < 4.00 | > 95 µM (inactive) | < 4.02 | < 4.02
C=C1CCN([C@@H](CC(C)C)C(=O)NCc2ccccc2)S(=O)(=O)c2ccccc21 | > 100 µM (inactive) | < 4.00 | > 95 µM (inactive) | < 4.02 | < 4.02
OCCCc1n[nH]c(=S)n1-c1ccccc1 | > 100 µM (inactive) | < 4.00 | > 95 µM (inactive) | < 4.02 | < 4.02
CC(C)C[C@@H](COc1ccccc1)N1CCN(CCc2ccccc2)CCC1=O | > 100 µM (inactive) | < 4.00 | > 95 µM (inactive) | < 4.02 | < 4.02
CN(C)/C=C/c1c([N+](=O)[O-])c2ccc(O)cc2n1-c1ccccc1 | > 100 µM (inactive) | < 4.00 | > 95 µM (inactive) | < 4.02 | < 4.02
Cc1cccc(CN2CCN(C3CN(Cc4cn(Cc5cccc(Cl)c5)nn4)S(=O)(=O)C3)CC2)c1 (stereo not given) | > 100 µM (inactive) | < 4.00 | > 95 µM (inactive) | < 4.02 | < 4.02
CCCn1c(C)cc(C(=O)CSc2nc3nc(C)cc(C)n3n2)c1C | > 100 µM (inactive) | < 4.00 | > 95 µM (inactive) | < 4.02 | < 4.02
COc1ccccc1COc1ccc2c(C)c(CC(=O)O)c(=O)oc2c1C | > 100 µM (inactive) | < 4.00 | > 95 µM (inactive) | < 4.02 | < 4.02

Second part, the compound after the results:

IC50 (AlphaScreen) | pIC50 (AlphaScreen, run 1) | IC50 (FP) | pIC50 (FP, run 1) | pIC50 (FP, run 2) | Compound
> 100 µM (inactive) | < 4.00 | > 95 µM (inactive) | < 4.02 | < 4.02 | COc1ccc(C(=O)N2CCC(C)(C(=O)NS(=O)(=O)C3CC3)C2)cc1F (stereo not given)
> 100 µM (inactive) | < 4.00 | > 95 µM (inactive) | < 4.02 | < 4.02 | CCOc1ccccc1N1CCN(C(=O)c2ccncc2)CC1
> 100 µM (inactive) | < 4.00 | > 95 µM (inactive) | < 4.02 | < 4.02 | COC(=O)c1cccc(NC(=S)NCCC2=CCCCC2)c1
> 100 µM (inactive) | < 4.00 | > 95 µM (inactive) | < 4.02 | < 4.02 | O=C(Cc1ccccc1Cl)N1CCOCC1
inactive | 4.01 | > 95 µM (inactive) | < 4.02 | < 4.02 | CCc1ccccc1NC(=O)c1ccccc1N1C(=O)C2C3C=CC(C3)C2C1=O (stereo not given)
> 100 µM (inactive) | < 4.00 | > 95 µM (inactive) | < 4.02 | < 4.02 | CC(=O)Oc1cc2c(c3ccccc13)CCC2=O
> 100 µM (inactive) | < 4.00 | > 95 µM (inactive) | < 4.02 | < 4.02 | O=C(O)c1cc(NCc2ccc(F)cc2)ccc1N1CCOCC1
inactive | 4.36 | > 95 µM (inactive) | < 4.02 | < 4.02 | O=C(CCC(=O)Nc1ccccc1Cl)NN=C1CCCC1
> 100 µM (inactive) | < 4.00 | > 95 µM (inactive) | < 4.02 | < 4.02 | CCc1ccc(NC(=O)CCn2nc(C)c(S(=O)(=O)N3CCCCC3)c2C)cc1
inactive | 4.66 | > 95 µM (inactive) | < 4.02 | < 4.02 | O=C(NCc1ccccc1)c1ccc(N2CCC3(CC2)CC(c2ccc(Cl)cc2)=NO3)c([N+](=O)[O-])c1
> 100 µM (inactive) | < 4.00 | > 95 µM (inactive) | < 4.02 | < 4.02 | CSc1nc2ccccc2c(=O)n1C1CCOC(C)(C)C1 (stereo not given)
> 100 µM (inactive) | < 4.00 | > 95 µM (inactive) | < 4.02 | < 4.02 | COc1ccc(S(=O)(=O)N2CCCCC2)cc1NC(=O)c1c(F)cccc1Cl
> 100 µM (inactive) | < 4.00 | > 95 µM (inactive) | < 4.02 | < 4.02 | Cc1occc1C(=O)N1N=C(C2CC2)CC1(O)C(F)(F)F (stereo not given)
> 100 µM (inactive) | < 4.00 | > 95 µM (inactive) | < 4.02 | < 4.02 | CCCNC(=S)Nc1cccc(C(F)(F)F)c1
